The target in the assay is Small conductance calcium-activated potassium channel (Rattus norvegicus, UniProt P70604+P70606+P70605). The experiment in a line: Inhibition of after hyperpolarization (AHP) of cultured rat sympathetic neurons as SKCa channel blocking activity. It counts as functional, cell-based. As to conditions: sympathetic neuron.
Regarding `c1ccc2c(c1)c1cc[n+]2CCCC[n+]2ccc(c3ccccc32)NCCCCN1`, the IC50 worked out at 0.04 µM.

Consider `[I-].[I-].c1ccc2c(c1)c1cc[n+]2CCCCCCCC[n+]2ccc(c3ccccc32)NCCCCCCCCN1`, for which the IC50 came to 0.19 µM.

For `c1ccc2c(c1)c1cc[n+]2CCCCC[n+]2ccc(c3ccccc32)NCCCCCCN1`, the IC50 is 0.012 µM.

For `c1cc2cc(c1)C[n+]1ccc(c3ccccc31)NCCCNc1cc[n+](c3ccccc13)C2`, the 50% inhibitory concentration (IC50) came out at 0.025 µM.

Take `c1cc2cc(c1)C[n+]1ccc(c3ccccc31)NCCCCCNc1cc[n+](c3ccccc13)C2`: the IC50 was 0.031 µM.

`c1ccc2c(c1)c1cc[n+]2CCCC[n+]2ccc(c3ccccc32)NCCCCCN1`: the IC50 worked out at 0.015 µM.

Turning to `c1ccc2c(c1)c1cc[n+]2CCCCC[n+]2ccc(c3ccccc32)NCCCCN1`, the IC50 is 0.009 µM.

As for `c1ccc2c(c1)c1cc[n+]2CCCCCC[n+]2ccc(c3ccccc32)NCCCCCN1`, the IC50 came out at 0.016 µM.

With `c1ccc2c(c1)c1cc[n+]2CCCCC[n+]2ccc(c3ccccc32)NCCCN1`, the IC50 stood at 0.03 µM.

Take `c1ccc2c(c1)c1cc[n+]2CCCCCCCCCC[n+]2ccc(c3ccccc32)NCCCCCCCCCCN1`: the IC50 was 0.26 µM.

`c1ccc2c(c1)c1cc[n+]2CCCCCC[n+]2ccc(c3ccccc32)NCc2ccc(cc2)CN1`: the IC50 amounted to 0.065 µM.

Take `c1ccc2c(c1)c1cc[n+]2CCCCCC[n+]2ccc(c3ccccc32)NCCCCCCN1`: the IC50 worked out at 0.06 µM.

Regarding `c1ccc2c(c1)c1cc[n+]2CCCCC[n+]2ccc(c3ccccc32)NCc2ccc(cc2)CN1`, the IC50 turned out to be 0.06 µM.

As for `c1cc2cc(c1)C[n+]1ccc(c3ccccc31)NCCCCCCNc1cc[n+](c3ccccc13)C2`, the IC50 is 0.035 µM.

For `[I-].[I-].c1ccc2c(c1)c1cc[n+]2CCCCC[n+]2ccc(c3ccccc32)NCCCCCN1`, the IC50 is 0.002 µM.

On to `c1ccc2c(c1)c1cc[n+]2CCC[n+]2ccc(c3ccccc32)NCc2ccc(cc2)CN1`, for which the IC50 came to 0.15 µM.

With `c1ccc2c(c1)c1cc[n+]2CCC[n+]2ccc(c3ccccc32)NCCCN1` (stereo in doubt; 2l), the IC50 is 0.63 µM.

Take `c1ccc2c(c1)c1cc[n+]2CCC[n+]2ccc(c3ccccc32)NCCCN1` (stereo in doubt; 2m): the IC50 was 0.38 µM.

`Cc1cc(N)c2ccccc2[n+]1CCCCCCCCCC[n+]1c(C)cc(N)c2ccccc21.[Cl-].[Cl-]` [DEQUALINIUM CHLORIDE]: the IC50 worked out at 0.9 µM.

In general, IC50 refers to the midpoint of a concentration-inhibition curve.

(Values after ChEMBL document CHEMBL1138822, “Bis-quinolinium cyclophanes: toward a pharmacophore model for the blockade of apamin-sensitive SKCa channels in sympathetic neurons” (Bioorg Med Chem Lett, 2004).)
